# Data as given in patent publication EP4741383A1, “COMPOUND AND USE THEREOF AS ANTI-CANCER DRUG” (Tyligand Bioscience (Shanghai) Limited, priority 2023, dated 2025).
# Tested on: A20
# Assay: CellTiter-Glo cell proliferation inhibition, A20
# Type: cell-based
# Settings: A20 (mouse B-cell lymphoma cell line), 72 hours; read-out: Example IC50 (µM) A20
# Description: This experiment used the CellTiter-Glo® Luminescent Cell Viability Assay kit from Promega to evaluate the inhibitory activity of the disclosed compounds on the proliferation of the following cell lines: 4T1 (mouse breast cancer cell line), A20 (mouse B-cell lymphoma cell line), A2780 (human ovarian cancer cell line), AsPC-1 (pancreatic cancer cell line), B16F10 (mouse melanoma cell line), BT549 (human breast cancer cell line), CT26 (mouse colon cancer cell line), EMT6 (mouse breast cancer cell line), HCT116 (colorectal cancer cell line), Jurket (acute leukemia cell line), KP-4 (pancreatic cancer cell line), LL/2 (mouse lung cancer cell line), MCF7 (breast cancer cell line), […] NCI-H358 (lung cancer cell line), NCI-H727 (gastric cancer cell line), NCI-1944 (lung cancer cell line), Pan 04.03 (pancreatic cancer cell line), SK-BR-3 (breast cancer cell line), THP-1 (leukemia cell line), TOV21G (ovarian cancer cell line), U87MG (glioblastoma cell line), and UM-UC-a (bladder cancer cell line).
# All cell lines were purchased from Nanjing Kebai Biotechnology Co., Ltd. The following materials were also used in the experiment: RPMI-1640 media (HyClone, catalog number #SH30022.01), McCoy's 5A media (Thermo Fisher, catalog number #16600-082), MCDB 105 media (Sigma, catalog number #117-500), Medium 199 (Thermo Fisher, catalog number #11150-059), MEM media (Thermo Fisher, catalog number #11095-080), DMEM media (HyClone, catalog number #SH30027.01), fetal bovine serum (FBS) (ExCell, catalog number # M4530), Sodium Pyruvate (100Mm) (Thermo Fisher, catalog number #11360-070), and MEM NEAA (100X) (Thermo Fisher). […]
# Cells were cultured according to the instructions provided by the cell supplier (Nanjing Kebai Biotechnology Co., Ltd.). […] Suspension or adherent cells were collected, and cell viability was determined using the trypan blue exclusion method, ensuring that cell viability was above 90%. […]
row,SMILES,IC50 [µM]
1,O=C(Nc1ccc(-c2csc(CO)c2)cc1)C(=O)Nc1ccc(-c2cc3cc(F)c(-c4nnn[nH]4)cc3n2C2CCC2)cc1 [Example 1],0.077
2,CC1(n2c(-c3ccc(NC(=O)C(=O)Nc4ccc(N5CCC6(CCOC6)CC5)cc4)cc3)cc3cc(F)c(-c4nnn[nH]4)cc32)CCC1 [Example 68],0.075
3,O=C(Nc1ccc(-c2cc3cc(F)c(-c4nnn[nH]4)cc3n2C2CCC2)cc1)C(=O)Nc1ccc(N2CCC3(CCC(O)C3)CC2)cc1 (stereo not drawn) [Example 100],0.128
